“Also recorded” adds a separate entry of the source. Oligonucleotides are written 5' to 3', each unit as a sugar letter and its base; * is a phosphorothioate linkage, no mark a phosphodiester; rarer units and linkages stand in square brackets, end groups in braces. Plain capitals give the bases only. m = 2'-O-methyl; r = 2'-OH (RNA); f = 2'-fluoro
Key:
[1] = Particle size of RNA-poly-L-arginine complexes by Dynamic Light Scattering; conditions: 10 minute incubation (FIG. 9)
Procedure: Particle sizes were determined by Dynamic Light Scattering (Wyatt Technology). Samples were placed in multiple wells in a 384-well plate and each well was measured ten times for 5 seconds. Z-averages were reported.

TLR7 = biological target: T1, TLR7 (Homo sapiens, UniProt Q9NYK1); assay: PBMC stimulation with p-L-arginine-complexed RNA ligands, IFN-α ELISA; format: cell-based; conditions: human PBMCs; for TLR7 selectivity (IFN-α versus TNF-α secretion): p-L-arginine delivery (FIG. 7); for IFN-α secretion (TLR7 activity): p-L-arginine delivery, 16 hours, ELISA (FIG. 7)
T1 construct: Peripheral blood mononuclear cells (PBMCs) were obtained from buffy coats from healthy adult donors; endogenous in cells; host or cells: primary human PBMCs from healthy donor buffy coats (TLR7 expressed by pDCs)
T1 sequence (Q9NYK1 27-1049): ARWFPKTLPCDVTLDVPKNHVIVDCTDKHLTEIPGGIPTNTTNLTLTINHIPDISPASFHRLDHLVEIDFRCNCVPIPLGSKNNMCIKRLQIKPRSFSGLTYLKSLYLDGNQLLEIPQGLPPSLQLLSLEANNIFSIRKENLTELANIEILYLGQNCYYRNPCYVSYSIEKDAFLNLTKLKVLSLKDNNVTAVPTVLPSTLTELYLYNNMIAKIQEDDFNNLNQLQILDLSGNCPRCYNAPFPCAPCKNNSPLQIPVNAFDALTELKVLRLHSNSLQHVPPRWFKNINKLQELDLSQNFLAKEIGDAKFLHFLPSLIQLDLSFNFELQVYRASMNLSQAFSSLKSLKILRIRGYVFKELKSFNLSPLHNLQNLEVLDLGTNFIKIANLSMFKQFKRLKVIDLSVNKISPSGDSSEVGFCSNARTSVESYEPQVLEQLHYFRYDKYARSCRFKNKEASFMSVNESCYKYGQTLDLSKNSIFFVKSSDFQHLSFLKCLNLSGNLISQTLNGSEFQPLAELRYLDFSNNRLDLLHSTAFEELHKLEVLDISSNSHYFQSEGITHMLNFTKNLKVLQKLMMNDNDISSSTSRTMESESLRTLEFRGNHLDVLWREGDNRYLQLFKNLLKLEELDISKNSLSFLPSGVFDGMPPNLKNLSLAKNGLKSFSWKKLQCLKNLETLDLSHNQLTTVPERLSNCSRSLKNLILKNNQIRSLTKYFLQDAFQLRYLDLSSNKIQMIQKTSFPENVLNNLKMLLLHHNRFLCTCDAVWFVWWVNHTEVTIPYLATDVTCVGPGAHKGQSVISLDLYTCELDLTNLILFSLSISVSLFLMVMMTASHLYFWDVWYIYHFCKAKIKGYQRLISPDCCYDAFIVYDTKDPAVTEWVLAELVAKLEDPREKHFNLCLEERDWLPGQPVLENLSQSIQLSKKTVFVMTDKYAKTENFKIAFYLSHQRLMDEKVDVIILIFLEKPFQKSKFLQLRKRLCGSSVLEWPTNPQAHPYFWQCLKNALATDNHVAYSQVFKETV
Procedure: (§1) Peripheral blood mononuclear cells (PBMCs) were obtained from buffy coats from healthy adult donors. Buffy coat samples were first diluted with an equal volume of phosphate-buffered saline (PBS). Next, PBMCs were isolated via density gradient centrifugation with Lymphoprep density gradient media ([…] Technologies) and SepMate-50 tubes ([…] Technologies). Samples were centrifuged at 1000 g for 15 minutes. After centrifugation, the upper layers were collected by pouring into a new tube, diluted with PBS, and centrifuged at 450×g for 5 minutes. To lyse red blood cells, cell pellets were resuspended with 10 mL Ammonium-Chloride-Potassium (ACK) Lysis Buffer and incubated for 8 minutes at room temperature. After lysis, cells were washed with PBS and passed through two 70 μm cell strainers. Viable cell counts were determined with a Vi-CELL cell counter (Beckman Coulter). […] Guanosine was added between about 20 and about 30 minutes before the addition of poly-[…])-complexed RNA. […] After mixing by pipetting up and down, the reaction was incubated for 10 minutes, pipetted up and down again, and then added to the cells. In some experiments, RNA ligands were used at a final concentration of 0.6 μg/ml. Where indicated as “+2'3' cGMP”, 2'3' cyclic GMP purchased from eMolecules was complexed together with the RNA ligands. The final concentration of 2'3' cyclic GMP was 5 μg/ml. p-L-arginine was adjusted accordingly to keep the mass ratio of nucleic acid:p-L-arginine constant. Cell culture supernatants were collected 15-18 hours after stimulation and stored at -80° C. Cytokines in cell culture supernatants were detected with the BD OptEIA human TNF ELISA Set (BD Biosciences), and either Invitrogen IFN alpha Human Matched Antibody Pair kit (Thermo Fisher Scientific) or Human IFN Alpha Multi-Subtype ELISA Kit (PBL Assay Science). To test the effects of the RNA ligands described in Example 1 on TLR7 and TLR8 activation, PBMCs were stimulated with the RNA ligands using p-L-arginine complex delivery, delivery with DOTAP, or delivery without a carrier. Activity of TLR7 and TLR8 was assessed based on measurements of IFN-α or TNF-α by enzyme-linked immunosorbent assays (ELISA). In this setting, as depicted in FIG. 6, IFN-α induced by small RNAs is derived from TLR7 expressed by pDCs, or from RIG-I expressed by monocytes. In contrast, TNF-α secretion is derived from monocytes and serves as an indication of TLR8 activation. As shown in this figure, the p-L-arginine delivery restricts most of the activation to TLRs. First, the effects of the RNA ligands on TLR7 and TLR8 activation using p-L-arginine complex delivery were tested.

TLR8 [2] = biological target: T2, TLR8 (Homo sapiens, UniProt Q9NR97); assay: PBMC stimulation with DOTAP-complexed RNA ligands, TNF-α ELISA; format: cell-based; conditions: human PBMCs, DOTAP delivery, 0.6 μg/ml and 2 μg/ml, 16 hours (FIGS. 10A-10B)
T2 construct: Peripheral blood mononuclear cells (PBMCs) were obtained from buffy coats from healthy adult donors; endogenous in cells; host or cells: primary human PBMCs from healthy donor buffy coats (TLR8 in monocytes)
T2 sequence (Q9NR97 27-1041): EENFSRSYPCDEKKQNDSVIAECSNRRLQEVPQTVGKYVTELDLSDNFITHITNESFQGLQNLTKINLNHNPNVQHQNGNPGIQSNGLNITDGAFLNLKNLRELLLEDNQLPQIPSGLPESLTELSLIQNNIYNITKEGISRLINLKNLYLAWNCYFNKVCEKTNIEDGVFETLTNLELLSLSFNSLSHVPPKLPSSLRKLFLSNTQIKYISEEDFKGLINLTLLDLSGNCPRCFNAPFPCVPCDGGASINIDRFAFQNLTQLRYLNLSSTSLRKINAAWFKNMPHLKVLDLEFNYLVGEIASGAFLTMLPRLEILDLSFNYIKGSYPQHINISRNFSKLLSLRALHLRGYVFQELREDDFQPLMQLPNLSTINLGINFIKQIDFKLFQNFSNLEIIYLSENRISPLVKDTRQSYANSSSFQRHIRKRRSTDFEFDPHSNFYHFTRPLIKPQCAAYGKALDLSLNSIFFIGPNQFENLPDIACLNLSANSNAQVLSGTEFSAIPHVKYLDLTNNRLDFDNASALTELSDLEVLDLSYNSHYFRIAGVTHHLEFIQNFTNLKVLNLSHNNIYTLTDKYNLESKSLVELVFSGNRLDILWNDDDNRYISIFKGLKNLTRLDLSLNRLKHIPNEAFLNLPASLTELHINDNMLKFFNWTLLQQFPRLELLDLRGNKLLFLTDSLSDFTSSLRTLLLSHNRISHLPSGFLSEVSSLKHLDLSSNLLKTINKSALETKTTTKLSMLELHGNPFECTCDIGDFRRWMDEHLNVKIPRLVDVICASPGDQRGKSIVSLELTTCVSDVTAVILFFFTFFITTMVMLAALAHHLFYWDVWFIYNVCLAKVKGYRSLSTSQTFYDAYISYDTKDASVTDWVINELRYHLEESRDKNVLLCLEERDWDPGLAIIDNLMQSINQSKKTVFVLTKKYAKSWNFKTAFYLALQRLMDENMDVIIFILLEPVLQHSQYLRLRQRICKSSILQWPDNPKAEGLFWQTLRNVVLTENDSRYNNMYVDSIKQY

TLR8 [3] = biological target: T2, TLR8; assay: PBMC stimulation with p-L-arginine-complexed RNA ligands, TNF-α ELISA; format: cell-based; conditions: human PBMCs, p-L-arginine delivery, 16 hours, ELISA (FIG. 7)
Procedure: as §1

| Substance | Particle size (diameter) of RNA-poly-L-arginine complexes [1] | TLR7 selectivity (IFN-α versus TNF-α secretion) (TLR7) | IFN-α secretion (TLR7 activity) (TLR7) | TNF-α secretion (TLR8 activity) (TLR8 [2]) | TNF-α secretion (TLR8 activity) (TLR8 [3]) |
| --- | --- | --- | --- | --- | --- |
| C*C*G*A*G*C*C*G*C*fU-U*fU-U*C*C*C (rC*rC*rG*rA*rG*rC*rC*rG*rC*fUrU*fUrU*rC*rC*rC) [ORN7015, 2′-fluoro modified version of ORN7013] | behaved similarly | moderately selective | moderately selective and active | – | – |
| C*C*U*U*C*U*U*C*U*U*C*U*U*C*U*U*C*U*U*C (rC*rC*rU*rU*rC*rU*rU*rC*rU*rU*rC*rU*rU*rC*rU*rU*rC*rU*rU*rC) [ORN7012] | behaved similarly | – | – | further increased TLR8 activation | TLR8-active |
| C*C*G*A*G*C*C*G*C*U*U*U*U*C*C*C (CCGAGCCGCUUUUCCC; all phosphorothioate, sugars by position not given here) [ORN7013, reference compound] | behaved similarly | limited TLR7 selectivity; also recorded: less TLR7-selective | limited TLR7 selectivity and activity; also recorded: less TLR7-selective and active | – | – |
| C-G-G-mC-U-C-G-G-C-A-G-A-A-G-C-C-G-G-G-C-C (rCrGrGmCrUrCrGrGrCrArGrArArGrCrCrGrGrGrCrC; hairpin) [ORN70230me, 2′O-methyl-C-modified ORN7023] | behaved similarly | maintained TLR7 selectivity; also recorded: TLR7-selective | further increasing the activity; also recorded: highly active | – | – |
| C*C*G*A*G*C*C*G*C*mU-U*fU-U*C*C*C (rC*rC*rG*rA*rG*rC*rC*rG*rC*mUrU*fUrU*rC*rC*rC) [ORN7016, 2′-fluoro- and 2′O-methyl-modified version of ORN7013] | behaved similarly | TLR7-selective | weakly active | – | – |
